The nature of experiment [1]: Reaction of aminooxy-CD with 4-thiouracil followed by UV spectra. Conditions: 1 mM 4-thiouracil, 0.1 M compound, 20° C., neutral pH (7.0), 1 mm path. How it is done: FIG. 1a. Time course of the UV spectra (optical path length 1 mm) of a reaction mixture containing 1 mM 4-thiouracil in 100 mM 4-aminooxy-2-butenyl-beta-cyclodextrin (I; see Example I.2) at pH 7.0. Incubation at 20° C. is indicated as hours.
FIG. 1b. Time course of the UV spectra (optical path length 1 mm) of a reaction mixture containing 1 mM 4-thiouracil and 100 mM 1-aminooxybutane at 20° C. at pH 7.00. Incubation time (hours) is indicated.
A 1 mM solution of 4-thiouracil (Lacheama, Brno, Czechoslovakia) was incubated at 20° C. within a 0.1 M solution of 4-aminooxy-2-butenyl-β-CD (I) at neutral pH. The UV-spectra were recorded at certain time intervals using cuvettes of 1 mm optical path length (FIG. 1a). This reaction was compared with the reaction of 4-thiouracil with 1-aminooxybutane under the same reaction conditions (FIG. 1b).

The nature of experiment [2]: Reaction of aminooxy-CD with 6-mercaptopurine riboside followed by UV spectra. Conditions: 1 mM 6-mercaptopurine riboside, 0.1 M compound, 20° C., pH 7.00, 1 mm path. How it is done: FIG. 2a. Time course of the UV spectra (optical path length 1 mm) of a reaction mixture containing 1 mM 6-mercaptopurineriboside with 100 mM 4-aminooxy-2-butenyl-beta-cyclodextrin (see Example I.2). Incubation time (hours) is indicated.
FIG. 2b. Time course of the UV spectra (optical path length b 1 mm) of a reaction mixture containing 1 mM 6-mercaptopurineriboside with 100 mM 1-aminooxybutane at pH 7.00. Incubation time (hours) is indicated.
A 1 mM solution of 6-mercaptopurine riboside (Sigma Chem. Co., USA) was incubated at 20° C. within 0.1 M of 4-aminooxy-2-butenyl-β-CD (I).

Consider 4-aminooxy-2-butenyl-beta-cyclodextrin, for which, in experiment [1], the “velocity of reaction with 4-thiouracil compared with 1-aminooxybutane” value is “significantly higher velocity of reaction”. The “reaction rate with 6-mercaptopurine riboside compared with 1-aminooxybutane” value in experiment [2] is “drastically higher reaction rates”.

For the origin of these results see patent US6998479B1, “Derivatives of cyclodextrins” (priority 1998, dated 2006).
